Results on 19 compounds are retold here after patent US10421761B2, “Compounds for kinase modulation, and indications therefor” (Plexxikon Inc., priority 2013, dated 2019).

Assay [1] relates to A375 (BRAF V600E) cell line. Kind of assay: A375 P-ERK inhibition assay (AlphaScreen). It is filed as cell-based, human. The conditions noted are these: for IC50: Homo sapiens, A-375, A375_P-ERK. The gist of the method: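 Phospho-ERK1/2 (Thr202/Tyr204) detected in lysates by AlphaScreen proximity signal, pairing a total-ERK antibody with a phospho-specific antibody. Before lysis, A375 cells received compound as an 8-point titration for one hour at 37° C.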
A general note: In Alpha technology, singlet oxygen from a donor bead excites a nearby acceptor bead.

Assay [2] has as its system mutant BRAF V600 driven melanoma. The conditions noted are these: cited from earlier work.
The test system of assay [3] is B9 (HRAS Q61L) cell line. Kind of assay: B9 P-ERK cell activation assay (AlphaScreen). Type of assay: cell-based, mouse. The conditions noted are these: for EC50: Mus musculus, P-ERK cell activation, B9, read-out: Cell activity (EC50 μM) B9_pERK. The method in brief:
(§1)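 Phospho-ERK1/2 (Thr202/Tyr204) in lysates quantified via AlphaScreen bead proximity, after one-hour, 37° C. exposure of cells to eight compound concentrations. Lines: IPC-298 human melanoma with activated NRAS; B9 mouse squamous carcinoma with activated HRAS.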

Assay [4] relates to IPC-298 (NRAS Q61L) cell line. Description: IPC-298 P-ERK cell activation assay (AlphaScreen). Type of assay: cell-based, human. To be noted: for EC50: Homo sapiens, P-ERK cell activation, IPC-298, numeric bounds, read-out: Cell activity (EC50 μM) IPC-298_P-ERK. The method in brief: as §1
Assay [5] has as its system B9 cells. Description: Anchorage-independent growth assay of B9 cells in soft agar. To be noted: 3 weeks; for effect on vemurafenib-induced B9 colony formation: combination with vemurafenib, soft agar. Type of assay: cell-based, mouse. As to the method: Anchorage-independent growth assay. 2.5×10^4 B9 cells were plated in each well of a six-well plate with a bottom layer of 1% and a top layer of 0.4% low melting agar (Sigma A4018, Dallas, Tex.) containing RPMI1640 medium with 10% FBS. For RAF inhibitor study, B9 cells grown in soft agar were treated with vemurafenib, compound P-1000 or compound A at indicated concentration or dimethyl sulfoxide (DMSO) for 3 weeks. For EGFR ligand study, B9 cells grown in soft agar were treated with AREG (R&D systems 989-AR, Minneapolis, Minn.), TGFα (R&D systems 239-A, Minneapolis, Minn.) or HB-EGF (R&D systems 259-HE, Minneapolis, Minn.) at the indicated concentrations for 3 weeks. For vemurafenib and erlotinib combination study, B9 cells grown in soft agar were treated with vemurafenib, erlotinib or a combination of the two compounds at the indicated concentrations or DMSO for 3 weeks. Anchorage-independent colonies ≥100 μm were scored using AxioVision Rel 4.8 software (CarlZeiss, Wake Forest, N.C.).
B9 cells grown in soft agar were treated with AREG, TGFα or HBEGF at the indicated concentrations for 3 weeks. Anchorage-independent colonies ≥100 μm were scored. B9 cells grown in soft agar were treated with vemurafenib or a combination of vemurafenib and erlotinib at the indicated concentrations for 3 weeks. Anchorage-independent colonies ≥100 μm were scored.

Assay [6] relates to gastric cancer cell line MKN28. The conditions noted are these: cited from earlier work.
The target of assay [7] is T1, BRAF V600E (Homo sapiens, UniProt P15056, V600E).
T1 construct: purchased Upstate Biotechnology
T1 sequence (P15056 whole entry V600E): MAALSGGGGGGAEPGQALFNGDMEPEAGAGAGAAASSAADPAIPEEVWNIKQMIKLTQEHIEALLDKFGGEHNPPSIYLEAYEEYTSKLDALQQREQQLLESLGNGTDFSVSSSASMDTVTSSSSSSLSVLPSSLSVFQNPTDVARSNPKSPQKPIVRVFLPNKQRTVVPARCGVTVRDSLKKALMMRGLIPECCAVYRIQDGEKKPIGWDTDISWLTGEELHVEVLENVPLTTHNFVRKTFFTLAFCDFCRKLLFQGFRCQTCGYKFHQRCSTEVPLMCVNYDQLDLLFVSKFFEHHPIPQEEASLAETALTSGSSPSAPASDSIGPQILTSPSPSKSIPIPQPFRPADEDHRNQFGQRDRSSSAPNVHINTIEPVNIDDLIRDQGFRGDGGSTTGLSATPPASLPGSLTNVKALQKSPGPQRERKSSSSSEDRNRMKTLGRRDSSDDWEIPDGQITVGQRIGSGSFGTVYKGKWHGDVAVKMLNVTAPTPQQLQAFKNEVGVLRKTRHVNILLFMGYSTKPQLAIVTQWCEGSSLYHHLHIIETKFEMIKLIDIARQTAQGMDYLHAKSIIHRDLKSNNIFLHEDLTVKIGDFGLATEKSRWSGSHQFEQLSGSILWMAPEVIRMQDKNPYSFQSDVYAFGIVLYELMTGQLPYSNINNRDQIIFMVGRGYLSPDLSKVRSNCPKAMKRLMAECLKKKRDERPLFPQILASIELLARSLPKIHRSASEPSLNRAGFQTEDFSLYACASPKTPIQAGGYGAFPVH
Kind of assay: BRAF V600E biochemical kinase activity assay (AlphaScreen, biotin-MEK1 substrate). To be noted: BRAF V600E biochemical inhibitory activity.

Molecules are shown by their SMILES. “Also recorded” adds a separate entry of the source. Like-named read-outs stand apart in the source and are kept apart here.

As to `CC(C)(C)c1nc(-c2cccc(NS(=O)(=O)c3c(F)cccc3F)c2F)c(-c2ccnc(N)n2)s1` [dabrafenib, reference compound], the pERK inhibition entry in assay [1] (BRAF V600E cell line A375) is on record as “highly potent inhibitor”. The “tumor response in patients” value in assay [2] is listed as “objective tumor response”. Moreover, the pERK activation result in assay [3] (RAS mutant cell line B9, one hour treatment) is given as “unusual bell-shaped pERK activation curve”; in assay [4] (RAS mutant cell line IPC-298, one hour treatment) it was “unusual bell-shaped pERK activation curve”.

For the compound `CCCS(=O)(=O)Nc1ccc(F)c(C(=O)c2c[nH]c3ncc(Cl)cc23)c1F` [P-1000, N-[3-(5-chloro-1H-pyrrolo[2,3-b]pyridine-3-carbonyl)-2,4-difluoro-phenyl]propane-1-sulfonamide], the “B9 colony formation / anchorage-independent growth in soft agar” value in assay [5] (colonies ≥100 μm scored) was “stimulated B9 colony formation; also recorded: increased anchorage independent cell growth”.

With `C#Cc1cccc(Nc2ncnc3cc(OCCOC)c(OCCOC)cc23)c1` [Erlotinib], the “effect on vemurafenib-induced B9 colony formation” value in assay [5] is recorded as “inhibited”; in assay [5] (listed as erlotinib), “antagonizes vemurafenib-induced B9 colony formation”.

With `COc1ccc2c(c1)c(CC(=O)O)c(C)n2C(=O)c1ccc(Cl)cc1` [indomethacin], in assay [6], the “proliferation and growth of MKN28” value was “significantly inhibit proliferation and growth”.

As to `CCN(C)S(=O)(=O)Nc1cccc(C(=O)c2c[nH]c3ncnc(NC4CCOCC4)c23)c1F` [P-2075, 5-[3-[[ethyl(methyl)sulfamoyl]amino]-2-fluoro-benzoyl]-4-(tetrahydropyran-4-ylamino)-7H-pyrrolo[2,3-d]pyrimidine], the IC50 in assay [1] and in assay [7] was 0.0001 to 1 µM throughout. In addition, the EC50 in assay [3] (numeric bounds) and in assay [4] was above 10 µM in each case.

With `CS(=O)(=O)Nc1ccc([N+](=O)[O-])cc1OC1CCCCC1` [NS-398], in assay [6], the “proliferation and growth of MKN28” value was “significantly inhibit proliferation and growth”.

As for `Cc1cc2c(-c3sc(C(C)(C)C)nc3-c3cccc(NS(=O)(=O)N4CCCC4)c3F)ncnc2[nH]1` [P-2123, N-[3-[2-tert-butyl-5-(6-methyl-7H-pyrrolo[2,3-d]pyrimidin-4-yl)thiazol-4-yl]-2-fluoro-phenyl]pyrrolidine-1-sulfonamide], the IC50 in assay [1] and in assay [7] was 0.0001 to 1 µM in each case. In addition, the EC50 in assay [3] (numeric bounds) and in assay [4] was above 10 µM each time.

Turning to `CCN(C)S(=O)(=O)Nc1cccc(-c2nc(C(C)(C)C)sc2-c2ccnc(OC)n2)c1F` [P-2088, 2-tert-butyl-4-[3-[[ethyl(methyl)sulfamoyl]amino]-2-fluoro-phenyl]-5-(2-methoxypyrimidin-4-yl)thiazole], the IC50 in assay [1] and in assay [7] was 0.0001 to 1 µM throughout. For the same compound, the EC50 in assay [3] (numeric bounds) and in assay [4] was above 10 µM throughout.

Turning to `O=C(c1cccc(NS(=O)(=O)N2CCCC2)c1F)c1c[nH]c2ncnc(C3CC3)c12` [P-2078, N-[3-(4-cyclopropyl-7H-pyrrolo[2,3-d]pyrimidine-5-carbonyl)-2-fluoro-phenyl]pyrrolidine-1-sulfonamide], the IC50 in assay [1] and in assay [7] was 0.0001 to 1 µM in each case. Moreover, the EC50 in assay [3] (numeric bounds) and in assay [4] was above 10 µM in each case.

With `O=C(c1cc(F)cc(NS(=O)(=O)N2CC[C@@H](F)C2)c1F)c1c[nH]c2ncc(-c3cnc(C4CC4)nc3)cc12` [P-2172, (3R)—N-[3-[5-(2-cyclopropylpyrimidin-5-yl)-1H-pyrrolo[2,3-b]pyridine-3-carbonyl]-2,5-difluoro-phenyl]-3-fluoro-pyrrolidine-1-sulfonamide], the IC50 in assay [1] and in assay [7] was 0.0001 to 1 µM throughout. The EC50 in assay [3] (numeric bounds) is above 1 µM; in assay [4] it was above 10 µM.

As for `CCCN(C)S(=O)(=O)Nc1cccc(C(=O)c2c[nH]c3ncnc(C4CC4)c23)c1F` [P-2087, 4-cyclopropyl-5-[2-fluoro-3-[[methyl(propyl)sulfamoyl]amino]benzoyl]-7H-pyrrolo[2,3-d]pyrimidine], the IC50 lay within 1 to 10 µM in assay [1] and 0.0001 to 1 µM in assay [7]. The EC50 in assay [3] (numeric bounds) and in assay [4] was above 10 µM in each case.

For `CCN(CC)S(=O)(=O)Nc1ccc(F)c(C(=O)c2c[nH]c3ncnc(NCC4CC4)c23)c1F` [P-2052, 4-(cyclopropylmethylamino)-5-[3-(diethylsulfamoylamino)-2,6-difluoro-benzoyl]-7H-pyrrolo[2,3-d]pyrimidine], the IC50 in assay [1] and in assay [7] was 0.0001 to 1 µM each time. The EC50 in assay [3] (numeric bounds) and in assay [4] was above 10 µM each time.

With `CC(C)(C)c1nc(-c2cccc(NS(=O)(=O)N3CCCC3)c2F)c(-c2ncnc3[nH]cnc23)s1` [P-2125, N-[3-[2-tert-butyl-5-(9H-purin-6-yl)thiazol-4-yl]-2-fluoro-phenyl]pyrrolidine-1-sulfonamide], the IC50 in assay [1] and in assay [7] was 0.0001 to 1 µM in each case. The EC50 in assay [3] (numeric bounds) was above 10 µM; in assay [4] it was above 1 µM.

In the case of `O=C(c1cccc(NS(=O)(=O)N2CCCC2)c1F)c1c[nH]c2ncnc(NCC3CC(O)C3)c12` (centres unmarked) [P-2098, N-[2-fluoro-3-[4-[(3-hydroxycyclobutyl)methylamino]-7H-pyrrolo[2,3-d]pyrimidine-5-carbonyl]phenyl]pyrrolidine-1-sulfonamide], the IC50 in assay [1] and in assay [7] was 0.0001 to 1 µM in each case. In addition, the EC50 in assay [3] (numeric bounds) and in assay [4] was above 10 µM throughout.

As to `COC(=O)N[C@@H](C)CNc1nccc(-c2nn(C(C)C)cc2-c2cc(Cl)cc(NS(=O)(=O)N3CC[C@@H](F)C3)c2F)n1` [P-2161, methyl N-[(1S)-2-[[4-[4-[5-chloro-2-fluoro-3-[[(3R)-3-fluoropyrrolidin-1-yl]sulfonylamino]phenyl]-1-isopropyl-pyrazol-3-yl]pyrimidin-2-yl]amino]-1-methyl-ethyl]carbamate], the IC50 in assay [1] and in assay [7] was 0.0001 to 1 µM in each case. Besides, the EC50 in assay [3] (class symbols) was 0.0001 to 1 µM; in assay [4], above 10 µM.

On to `CCN(C)S(=O)(=O)Nc1ccc(F)c(C(=O)c2c[nH]c3ncnc(N[C@H](C)C4CC4)c23)c1F` [P-2118, 4-[[(1R)-1-cyclopropylethyl]amino]-5-[3-[[ethyl(methyl)sulfamoyl]amino]-2,6-difluoro-benzoyl]-7H-pyrrolo[2,3-d]pyrimidine], for which the IC50 in assay [1] and in assay [7] was 0.0001 to 1 µM throughout. Besides, the EC50 in assay [3] (numeric bounds) and in assay [4] was above 10 µM each time.

On to `COC(=O)N[C@@H](C)CNc1nccc(-c2nn(C(C)C)cc2-c2cc(Cl)cc(NS(=O)(=O)N3CCC3)c2F)n1` [P-2163, methyl N-[(1S)-2-[[4-[4-[3-(azetidin-1-ylsulfonylamino)-5-chloro-2-fluoro-phenyl]-1-isopropyl-pyrazol-3-yl]pyrimidin-2-yl]amino]-1-methyl-ethyl]carbamate], for which the IC50 in assay [1] and in assay [7] was 1 to 10 µM throughout. Besides, the EC50 in assay [3] (numeric bounds) and in assay [4] was above 10 µM in each case.

Take `CNc1ncnc2[nH]cc(C(=O)c3cccc(NS(=O)(=O)N4CCCC4)c3F)c12` [P-2071, N-[2-fluoro-3-[4-(methylamino)-7H-pyrrolo[2,3-d]pyrimidine-5-carbonyl]phenyl]pyrrolidine-1-sulfonamide]: the IC50 in assay [1] and in assay [7] was 0.0001 to 1 µM in each case. Further, the EC50 in assay [3] (numeric bounds) and in assay [4] was above 10 µM each time.

With `Cc1ncnc2[nH]cc(C(=O)c3cccc(NS(=O)(=O)N4CCCC4)c3F)c12` [P-2076, N-[2-fluoro-3-(4-methyl-7H-pyrrolo[2,3-d]pyrimidine-5-carbonyl)phenyl]pyrrolidine-1-sulfonamide], the IC50 in assay [1] and in assay [7] was 0.0001 to 1 µM throughout. For the same compound, the half-maximal effective concentration (EC50) in assay [3] (numeric bounds) and in assay [4] was above 10 µM in each case.

As usually defined, the IC50 is the concentration that inhibits the measured activity by half. Read a low IC50 as greater potency in that assay. For orientation: EC50 means the concentration needed to bring the measured effect to its halfway point.
